Experimental data as given in PubChem BioAssay AID686918 (Sanford-Burnham Center for Chemical Genomics, 2013).
Activity calls are given as the source filed them.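 How the source made its calls: active means thrombin counterscreen IC50 at or below 100 µM; inactive means the rest.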

Biological target: Prothrombin (Bos taurus) (UniProt P00735)
Assay: thrombin inhibitor potency on Ub4 substrate – biochemical, fluorescence polarization, SAR validation, counter-screen for Rpn11 inhibitor project, dose response (AID 686918)
Details: bovine thrombin cleavage of Ub4-pepOG

Sequence of Prothrombin (Bos taurus) (P00735 whole entry, looked up): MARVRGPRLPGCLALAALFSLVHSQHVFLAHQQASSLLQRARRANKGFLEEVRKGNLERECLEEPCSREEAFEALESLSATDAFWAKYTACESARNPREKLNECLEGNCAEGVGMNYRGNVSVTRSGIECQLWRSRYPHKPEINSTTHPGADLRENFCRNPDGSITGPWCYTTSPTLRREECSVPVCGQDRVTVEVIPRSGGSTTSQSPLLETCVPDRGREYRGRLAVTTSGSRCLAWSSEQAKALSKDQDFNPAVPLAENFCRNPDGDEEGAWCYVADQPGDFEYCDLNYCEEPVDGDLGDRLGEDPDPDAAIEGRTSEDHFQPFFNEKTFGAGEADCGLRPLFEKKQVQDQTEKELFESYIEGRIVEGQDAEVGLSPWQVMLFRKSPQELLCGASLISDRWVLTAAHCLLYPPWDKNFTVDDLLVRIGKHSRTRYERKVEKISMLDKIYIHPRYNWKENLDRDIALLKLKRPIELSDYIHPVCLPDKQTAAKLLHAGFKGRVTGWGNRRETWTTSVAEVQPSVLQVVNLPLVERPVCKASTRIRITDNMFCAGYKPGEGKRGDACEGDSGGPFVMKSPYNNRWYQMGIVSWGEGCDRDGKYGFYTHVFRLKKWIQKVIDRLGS

| SMILES | IC50 |
| --- | --- |
| O=C(Sc1cccc2cccnc12)c1ccccc1Br | > 99 µM (inactive) |
| CCOc1ccccc1C(=O)Sc1cccc2cccnc12 | > 99 µM (inactive) |
| COC(=O)[C@H](C)NC(=O)c1ccnc2c(SSc3cccc4c(C(=O)N[C@@H](C)C(=O)OC)ccnc34)cccc12 | > 99 µM (inactive) |
| O=C(Sc1cccc2cccnc12)C1CCCCC1 | > 99 µM (inactive) |
| O=C(Sc1cccc2cccnc12)c1cccc(C(F)(F)F)c1 | > 99 µM (inactive) |
| O=C(O)c1cnc2c(SSc3cccc4cc(C(=O)O)cnc34)cccc2c1 | > 99 µM (inactive) |
| N#Cc1cccc(C(=O)Sc2cccc3cccnc23)c1 | > 99 µM (inactive) |
| O=C(Sc1cccc2cccnc12)c1ccccc1OC(F)(F)F | > 99 µM (inactive) |
| COC(=O)[C@H](CO)NC(=O)c1cnc2c(SSc3cccc4cc(C(=O)N[C@@H](CO)C(=O)OC)cnc34)cccc2c1 | > 99 µM (inactive) |
| COc1ccc(C(=O)Sc2cccc3cccnc23)cc1 | > 99 µM (inactive) |
| O=C(Sc1cccc2cccnc12)c1ccc2c(c1)OCO2 | > 99 µM (inactive) |
| COc1ccc(C(=O)Sc2cccc3cccnc23)cc1OC | > 99 µM (inactive) |
| Cc1ccccc1C(=O)Sc1cccc2cccnc12 | > 99 µM (inactive) |
| O=C(Sc1cccc2cccnc12)c1cccc2ccccc12 | > 99 µM (inactive) |
| COC(=O)[C@@H]1CCCN1C(=O)c1cnc2c(SSc3cccc4cc(C(=O)N5CCC[C@H]5C(=O)OC)cnc34)cccc2c1 | > 99 µM (inactive) |
| COC(=O)C[C@H](NC(=O)c1cnc2c(SSc3cccc4cc(C(=O)N[C@@H](CC(=O)OC)C(=O)OC)cnc34)cccc2c1)C(=O)OC | > 99 µM (inactive) |
| O=C(Sc1cccc2cccnc12)c1ccccc1[N+](=O)[O-] | > 99 µM (inactive) |
| O=C(Sc1cccc2cccnc12)c1ccccc1F | > 99 µM (inactive) |
| O=C(Sc1cccc2cccnc12)c1ccccc1 | > 99 µM (inactive) |
| COC(=O)[C@H](CC(C)C)NC(=O)c1cnc2c(SSc3cccc4cc(C(=O)N[C@@H](CC(C)C)C(=O)OC)cnc34)cccc2c1 | > 99 µM (inactive) |
| CC[C@@H](C)[C@H](NC(=O)c1cnc2c(SSc3cccc4cc(C(=O)N[C@H](C(=O)OC)[C@@H](C)CC)cnc34)cccc2c1)C(=O)OC | > 99 µM (inactive) |
| O=C(Sc1cccc2cccnc12)c1ccc([N+](=O)[O-])cc1 | > 99 µM (inactive) |
| COC(=O)[C@H](C)N(C)C(=O)c1cnc2c(SSc3cccc4cc(C(=O)N(C)[C@@H](C)C(=O)OC)cnc34)cccc2c1 | > 99 µM (inactive) |
| CC(C)Cc1ccc(C(=O)Sc2cccc3cccnc23)cc1 | > 99 µM (inactive) |

| SMILES | IC50 |
| --- | --- |
| COC(=O)c1cnc2c(SSc3cccc4cc(C(=O)OC)cnc34)cccc2c1 | > 99 µM (inactive) |
| COc1ccccc1C(=O)Sc1cccc2cccnc12 | > 99 µM (inactive) |
| O=C(Sc1cccc2cccnc12)c1ccc(F)c(F)c1 | > 99 µM (inactive) |
| O=C(Sc1cccc2cccnc12)c1ccc(F)cc1F | > 99 µM (inactive) |
| CCCc1ccc(C(=O)Sc2cccc3cccnc23)cc1 | > 99 µM (inactive) |
| O=C(Sc1cccc2cccnc12)c1cccc(Cl)c1 | > 99 µM (inactive) |
| CC(C)[C@H](NC(=O)c1cnc2c(SSc3cccc4cc(C(=O)N[C@H](C(=O)O)C(C)C)cnc34)cccc2c1)C(=O)O | > 99 µM (inactive) |
| CC(C)(C)OC(=O)CCNC(=O)c1cnc2c(SSc3cccc4cc(C(=O)NCCC(=O)OC(C)(C)C)cnc34)cccc2c1 | > 99 µM (inactive) |
| Cc1ccc(C(=O)Sc2cccc3cccnc23)cc1 | > 99 µM (inactive) |
| COc1cccc(C(=O)Sc2cccc3cccnc23)c1 | > 99 µM (inactive) |
| O=C(Sc1cccc2cccnc12)c1ccccc1Cl | > 99 µM (inactive) |
| O=C(O)[C@@H]1CCCN1C(=O)c1cnc2c(SSc3cccc4cc(C(=O)N5CCC[C@H]5C(=O)O)cnc34)cccc2c1 | > 99 µM (inactive) |
| N#Cc1ccc(C(=O)Sc2cccc3cccnc23)cc1 | > 99 µM (inactive) |
| COc1ccc(C(=O)Sc2cccc3cccnc23)cc1F | > 99 µM (inactive) |
| CC(C)C[C@H](NC(=O)c1cnc2c(SSc3cccc4cc(C(=O)N[C@@H](CC(C)C)C(=O)O)cnc34)cccc2c1)C(=O)O | > 99 µM (inactive) |
| C[C@@H](C(=O)O)N(C)C(=O)c1cnc2c(SSc3cccc4cc(C(=O)N(C)[C@@H](C)C(=O)O)cnc34)cccc2c1 | > 99 µM (inactive) |
| O=C(Sc1cccc2cccnc12)c1c(Cl)cccc1Cl | > 99 µM (inactive) |
| COC(=O)[C@H](C)NC(=O)c1cnc2c(SSc3cccc4cc(C(=O)N[C@@H](C)C(=O)OC)cnc34)cccc2c1 | > 99 µM (inactive) |
| O=C(Sc1cccc2cccnc12)c1ccc(C(F)(F)F)cc1 | > 99 µM (inactive) |
| O=C(Sc1cccc2cccnc12)c1ccc(F)cc1 | > 99 µM (inactive) |
| O=C(Sc1cccc2cccnc12)c1ccccc1I | > 99 µM (inactive) |
| COC(=O)[C@@H](NC(=O)c1cnc2c(SSc3cccc4cc(C(=O)N[C@H](C(=O)OC)C(C)C)cnc34)cccc2c1)C(C)C | > 99 µM (inactive) |
| CC[C@@H](C)[C@H](NC(=O)c1cnc2c(SSc3cccc4cc(C(=O)N[C@H](C(=O)O)[C@H](C)CC)cnc34)cccc2c1)C(=O)O | > 99 µM (inactive) |
| Cc1cccc(C(=O)Sc2cccc3cccnc23)c1 | > 99 µM (inactive) |
